The subject of one data set is rgRSV224 virus. As to the kind of experiment: microbe, parasite or virus in culture. The data set is classed as cell-based, respiratory syncytial virus (RSV). To be noted: human respiratory syncytial virus, HeLa, 72 h, read-out: RSV HELA pEC50, rgRSV224 virus (MOI=1), HeLa cells, GFP expression three days post-virus exposure (converted).
The test system of another data set is HeLa cells. Put plainly: Cytotoxicity in HeLa cells, ATP content (ATPlite kit). To be noted: three days incubation, CC50 = 50% concentration for cytotoxicity. For orientation: ATP-based viability assays read luminescence as a measure of living cells.

This is an account of results in patent publication US9981976B2, “Piperidine substituted pyrazolo[1,5-A]pyrimidine derivatives with inhibitory activity on the replication of the respiratory syncytial virus (RSV)” (priority 2014, dated 2018).

Consider `CCOc1cccc2ncnc(N3CCCCC3c3cc4nc(N5CCC5)cc(N5CCOCC5)n4n3)c12` (stereo not drawn) [P61, 4-(5-(azetidin-1-yl)-2-(1-(5-ethoxyquinazolin-4-yl)piperidin-2-yl)-pyrazolo[1,5-a]pyrimidin-7-yl)morpholine], for which, in the data set on rgRSV224 virus, the EC50 was 31.6 nM. The “SI TOX HELA” value in the data set with HeLa cells is less than 4.

On to `Cc1cccc2nc(NS(C)(=O)=O)nc(N3CCCCC3c3cc4nc(N5CCC5)cc(N5CCOCC5)n4n3)c12` (stereo not drawn) [P9, N-(4-(2-(5-(azetidin-1-yl)-7-morpholinopyrazolo[1,5-a]pyrimidin-2-yl)piperidin-1-yl)-5-methylquinazolin-2-yl)methanesulfonamide], for which the EC50 in the data set with rgRSV224 virus was 5.01 nM. In addition, the “SI TOX HELA” value with HeLa cells is less than 4.6.

On to `Cc1ccc2ncnc(N3CCCCC3c3cc4nc(N5CCC5)cc(N5CCOCC5)n4n3)c2c1C` (stereo not drawn) [P64, 4-(5-(azetidin-1-yl)-2-(1-(5,6-dimethylquinazolin-4-yl)piperidin-2-yl)-pyrazolo[1,5-a]pyrimidin-7-yl)morpholine], for which, in the data set with rgRSV224 virus, the EC50 is 15.8 nM. The “SI TOX HELA” value with HeLa cells is recorded as less than 4.6.

In the case of `Cc1cn2nc(C3CCCCN3c3nc(NS(C)(=O)=O)nc4cccc(C)c34)cc2nc1N1CC(O)C1` (stereo not drawn) [P41, N-(4-(2-(5-(3-hydroxyazetidin-1-yl)-6-methylpyrazolo[1,5-a]-pyrimidin-2-yl)piperidin-1-yl)-5-methylquinazolin-2-yl)methanesulfonamide], the EC50 with rgRSV224 virus was 79.4 nM. Also, the “SI TOX HELA” value with HeLa cells was less than 4.

Regarding `Cc1cc(C)c2c(N3CCCCC3c3cc4nc(N5CCC5)cc(N5CCOCC5)n4n3)ncnc2c1` (stereo not drawn) [P59, 4-(5-(azetidin-1-yl)-2-(1-(5,7-dimethylquinazolin-4-yl)piperidin-2-yl)-pyrazolo[1,5-a]pyrimidin-7-yl)morpholine], in the data set with rgRSV224 virus, the EC50 was 398 nM. For the same compound, the “SI TOX HELA” value in the data set on HeLa cells stood at 4.3.

For `CS(=O)(=O)Nc1nc(N2CCCCC2c2cc3nc(N4CCC4)cc(N4CCOCC4)n3n2)c2ccccc2n1` (stereo not drawn) [P10, N-(4-(2-(5-(azetidin-1-yl)-7-morpholinopyrazolo[1,5-a]pyrimidin-2-yl)piperidin-1-yl)quinazolin-2-yl)methanesulfonamide], the EC50 in the data set on rgRSV224 virus was 631 nM. For the same compound, the “SI TOX HELA” value in the data set on HeLa cells is less than 4.3.

Turning to `CS(=O)(=O)Nc1nc(N2CCCC[C@@H]2c2cc3nc(N4CCC4)cc(N4CCOCC4)n3n2)c2cc(Cl)ccc2n1` [P34, (R)—N-(4-(2-(5-(azetidin-1-yl)-7-morpholinopyrazolo[1,5-a]-pyrimidin-2-yl)piperidin-1-yl)-6-chloroquinazolin-2-yl)methanesulfonamide], the EC50 in the data set on rgRSV224 virus is 631 nM. The “SI TOX HELA” value with HeLa cells worked out at 4.3.

For `Cc1cn2nc(C3CCCCN3c3ncnc4cccc(C)c34)cc2nc1N1CC[C@@H](N)C1` (stereo in doubt) [P48, (3 S)-1-(6-methyl-2-(1-(5-methylquinazolin-4-yl)piperidin-2-yl)-pyrazolo[1,5-a]pyrimidin-5-yl)pyrrolidin-3-amine], the EC50 with rgRSV224 virus was 12.6 nM. In addition, in the data set on HeLa cells, the “SI TOX HELA” value is on record as 4.5.

As to `Cc1cn2nc(C3CCCCN3c3ncnc4cccc(C)c34)cc2nc1N1CC(O)C1` (stereo not drawn) [P23, 1-(6-methyl-2-(1-(5-methylquinazolin-4-yl)piperidin-2-yl)pyrazolo-[1,5-a]pyrimidin-5-yl)azetidin-3-ol], the EC50 in the data set on rgRSV224 virus was 15.8 nM. In addition, in the data set with HeLa cells, the “SI TOX HELA” value is on record as less than 4.6.

`COc1cccc2ncnc(N3CCCCC3c3cc4nc(N5CCC5)cc(N5CCOCC5)n4n3)c12` (stereo not drawn) [P74, 4-(5-(azetidin-1-yl)-2-(1-(5-methoxyquinazolin-4-yl)piperidin-2-yl)-pyrazolo[1,5-a]pyrimidin-7-yl)morpholine]: in the data set on rgRSV224 virus, the EC50 was 15.8 nM. Also, in the data set with HeLa cells, the “SI TOX HELA” value is given as less than 4.6.

For `COCCOC(=O)Nc1nc(N2CCCCC2c2cc3nc(N4CCC4)cc(N4CCOCC4)n3n2)c2cc(N3CCOCC3)ccc2n1` (stereo not drawn) [P14, 2-methoxyethyl 4-(2-(5-(azetidin-1-yl)-7-morpholinopyrazolo[1,5-a]-pyrimidin-2-yl)piperidin-1-yl)-6-morpholinoquinazolin-2-ylcarbamate], the EC50 with rgRSV224 virus was 794 nM. Besides, in the data set on HeLa cells, the “SI TOX HELA” value is less than 4.

Take `Cc1nc(N2CCCCC2c2cc3nc(N4CC(O)C4)c(C)cn3n2)c2c(C)cccc2n1` (stereo not drawn) [P37, 1-(2-(1-(2,5-dimethylquinazolin-4-yl)piperidin-2-yl)-6-methyl-pyrazolo[1,5-a]pyrimidin-5-yl)azetidin-3-ol]: the EC50 in the data set with rgRSV224 virus was 316 nM. Besides, the “SI TOX HELA” value with HeLa cells is given as 4.3.

For `COC(=O)Nc1nc(N2CCCCC2c2cc3nc(N4CCC4)cc(N4CCOCC4)n3n2)c2c(C)cccc2n1` (stereo not drawn) [P29, methyl (4-(2-(5-(azetidin-1-yl)-7-morpholinopyrazolo[1,5-a]-pyrimidin-2-yl)piperidin-1-yl)-5-methylquinazolin-2-yl)carbamate], the EC50 in the data set with rgRSV224 virus is 398 nM. For the same compound, the “SI TOX HELA” value in the data set with HeLa cells is reported as 4.5.

Consider `Cc1ccc2nc(Cl)nc(N3CCCCC3c3cc4nc(N5CCC5)cc(N5CCOCC5)n4n3)c2c1` (stereo not drawn) [P5, 4-(5-(azetidin-1-yl)-2-(1-(2-chloro-6-methylquinazolin-4-yl)piperidin-2-yl)pyrazolo[1,5-a]pyrimidin-7-yl)morpholine], for which the EC50 in the data set with rgRSV224 virus is 251 nM. For the same compound, the “SI TOX HELA” value in the data set on HeLa cells was less than 5.

As for `Clc1ccc2ncnc(N3CCCC[C@H]3c3cc4nc(N5CCC5)cc(N5CCOCC5)n4n3)c2c1` [P2, (S)-4-(5-(azetidin-1-yl)-2-(1-(6-chloroquinazolin-4-yl)piperidin-2-yl)-pyrazolo[1,5-a]pyrimidin-7-yl)morpholine], in the data set with rgRSV224 virus, the EC50 was 316 nM. The “SI TOX HELA” value with HeLa cells was determined as 4.4.

With `Cc1cccc2nc(C(=O)NS(=O)(=O)C3CC3)nc(N3CCCCC3c3cc4nc(N5CCC5)cc(N5CCOCC5)n4n3)c12` (stereo not drawn) [P71, 4-(2-(5-(azetidin-1-yl)-7-morpholinopyrazolo[1,5-a]pyrimidin-2-yl)-piperidin-1-yl)-N-(cyclopropylsulfonyl)-5-methylquinazoline-2-carboxamide], in the data set with rgRSV224 virus, the EC50 was 398 nM. For the same compound, the “SI TOX HELA” value in the data set with HeLa cells is listed as less than 4.

As to `Cc1cccc2nc(-c3cnoc3)nc(N3CCCCC3c3cc4nc(N5CCC5)cc(N5CCOCC5)n4n3)c12` (stereo not drawn) [P72, 4-(5-(azetidin-1-yl)-2-(1-(2-(isoxazol-4-yl)-5-methylquinazolin-4-yl)-piperidin-2-yl)pyrazolo[1,5-a]pyrimidin-7-yl)morpholine], the EC50 in the data set with rgRSV224 virus is 25.1 nM. Further, in the data set on HeLa cells, the “SI TOX HELA” value was 4.5.

Take `CCc1ccc2ncnc(N3CCCCC3c3cc4nc(N5CCC5)cc(N5CCOCC5)n4n3)c2c1C` (stereo not drawn) [P63, 4-(5-(azetidin-1-yl)-2-(1-(6-ethyl-5-methylquinazolin-4-yl)piperidin-2-yl)pyrazolo[1,5-a]pyrimidin-7-yl)morpholine]: in the data set on rgRSV224 virus, the EC50 was 398 nM. Also, the “SI TOX HELA” value in the data set with HeLa cells was 4.4.

Regarding `FC(F)(F)c1cccc2ncnc(N3CCCCC3c3cc4nc(N5CCC5)cc(N5CCOCC5)n4n3)c12` (stereo not drawn) [P62, 4-(5-(azetidin-1-yl)-2-(1-(5-(trifluoromethyl)quinazolin-4-yl)piperidin-2-yl)pyrazolo[1,5-a]pyrimidin-7-yl)morpholine], the EC50 with rgRSV224 virus is 100 nM. Further, the “SI TOX HELA” value in the data set with HeLa cells amounted to 4.3.

`Cc1ccc(C)c2c(N3CCCCC3c3cc4nc(N5CCC5)cc(N5CCOCC5)n4n3)ncnc12` (stereo not drawn) [P66, 4-(5-(azetidin-1-yl)-2-(1-(5,8-dimethylquinazolin-4-yl)piperidin-2-yl)-pyrazolo[1,5-a]pyrimidin-7-yl)morpholine]: in the data set with rgRSV224 virus, the EC50 is 100 nM.
